Consider one molecule from patent publication US20020166134A1, “Cardiomyocytes with enhanced proliferative potenial, and methods for preparing and using same” (priority 1999, published 2002).

The subject of one assay is cardiomyocytes. The assay is described as follows: Tritiated thymidine incorporation assay of cardiomyocyte DNA synthesis (labeling index) in adult transgenic mice, with or without isoproterenol infusion. Particulars: for Left Atrium cardiomyocyte labeling index / Right Atrium cardiomyocyte labeling index / Ventricle cardiomyocyte labeling index: isoproterenol infusion 7 days. It counts as in vivo. An excerpt:
A thymidine incorporation assay was used to determine if cardiomyocyte DNA synthesis persisted in adult transgenic MCH-CYCD2 animals. This testing also employed a second transgenic mouse line, designated MHC-nLAC. The MCH-nLAC mice express a nuclear localized β-galactosidase (βGAL) reporter gene exclusively in the cardiomyocytes (Soonpaa, M. H. et al., Science 264:98-101 (1994); Soonpaa, M. H. and L. J. Field, Am. J. Physiol. 272:H220-226 (1997)). Accurate cardiomyocyte tritiated thymidine labeling indices can be readily obtained with the MHC-nLAC animals simply by screening for co-localization of βGAL activity and silver grains in autoradiographs of 5-bromo-4-chloro-3-indolyl-B-D-galactoside (X-GAL) stained heart sections. To monitor the effect of cyclin D2 overexpression on cardiomyocyte DNA synthesis, MHC-CYCD2 mice were crossed with MHC-nLAC mice and animals carrying either the MHC-nLAC transgene alone or both transgenes were identified and sequestered. When the mice reached 11 weeks of age, they received a single injection of tritiated thymidine and were sacrificed four hours later. The hearts were removed, sectioned, stained with X-GAL and processed for autoradiography. […] In light of the sustained cardiomyocyte DNA synthesis observed in the adult MHC-CYCD2 mouse hearts, a series of experiments was initiated to ascertain how the transgenic myocardium would respond to cardiac hypertrophy. Osmotic mini-pumps (Model 2001, Alzet, Palo Alto, Calif., flow rate of 1 μl per hour) filled with saline or 0.028 g/ml isoproterenol in saline were implanted through a small longitudinal incision between the scapulae. 8 control mice (MHC-nLAC) and 8 cyclin D2 mice (MHC-nLAC/MHC-CYCD2 double transgenics) were used.
Prior to sacrifice, the experimental and control mice received a bolus injection of tritiated thymidine to permit assessment of cardiomyocyte DNA synthesis. After a 4 hour chase, the animals were sacrificed, and the hearts were harvested, cryoprotected, sectioned, stained with X-GAL and subjected to autoradiography. Once again, cardiomyocyte DNA synthesis was measured by scoring the presence of silver grains over βGAL positive nuclei. […] Isoproterenol treatment had no effect on cardiomyocyte DNA synthesis in the non-cyclin expressing control group.
Pulse chase experiments were employed to determine the fate of the cardiomyocytes synthesizing DNA. Once again, MHC-CYCD2 mice were crossed with MHC-nLAC mice. The MHC-nLAC mice express a nuclear localized β-GAL reporter exclusively in cardiomyocytes. Mice from this cross carrying either the MHC-nLAC transgene alone or both the MHC-nLAC and MHC-CYCD2 transgenes were identified and sequestered. At 11 weeks of age, myocardial hypertrophy was induced by isoproterenol infusion with Alzet minipumps (minipump model 2001, Alzet, Palo Alto Calif.; flow rate of 1 μl/hr, 0.028 g/ml isoproterenol). After 7 days of isoproterenol infusion, the control (MHC-nLAC) and experimental (MHC-nLAC/MHC-CYCD2 double transgenic) mice received a single injection of 3H-thymidine (200 uCi I.P. at 28 Ci/mM, Amersham, Arlington Heights, Ill.), and were sacrificed either 4 hours (pulse, FIG. 3A) or 72 hours (chase, FIG. 3B) later. The hearts were removed, cryoprotected in 30% sucrose, embedded and sectioned at 10 μm using standard histologic techniques. The sections were post-fixed in formaldehyde:glutaraldehyde (1:1) and overlaid with 1 mg/ml X-GAL, 5 mM potassium ferricyanide, 5 mM potassium ferrocyanide and 2 mM magnesium chloride in PBS. The sections were counter-stained with DAPI, and washed three times in PBS. After drying, stained slides were coated with photographic emulsion (Ilford L.4, Polysciences, Warrington Pa.) diluted 1:1 with water, drained, and placed in a light-tight box for four days at 4° C. Slides were then developed in Kodak D-19 (Rochester N.Y.) for four minutes, washed in water, and fixed in 30% sodium thiosulfate for at least four minutes. […]
On the technique in general: Incorporation of labelled thymidine or its analogues reports DNA synthesis.

Assay [1] deals with cardiomyocytes from the left atria of MHC-CYCD2 transgenic mice. Briefly: Number of cardiomyocyte nuclei (kariokinesis) in left atrial cultures with isoproterenol. The following applies: isoproterenol 1 μm, 72 hrs, left atria of day 14 MHC-CYCD2 mice, FIG. 5. It counts as cell-based. The protocol: Left atria from neonatal day 14 MHC-CYCD2 transgenic mice were harvested and digested in PBS (37° C., 60 min) containing 0.17% collagenase (Type I, Worthington Biochemical, Freehold N.J.). Cells were then triturated with a Pasteur pipette and plated at a density of 1×10^5 cells per chamber slide. Cells were cultured in DMEM supplemented with 10% FBS. In some cases, the media also contained isoproterenol (1 μm). After 72 hrs., the slides were fixed in gluteraldehyde-formaldehyde (1:1) and overlaid with 1 mg/ml X-GAL, 5 mM potassium ferricyanide, 5 mM potassium ferrocyanide and 2 mM magnesium chloride in PBS. The number of blue nuclei were counted directly on a microscope.

In the next assay the test system is cell cycle protein. The assay is described as follows: Western blot analysis of cell cycle protein level changes in response to isoproterenol. Particulars: 7 days infusion. Further details: key to Cyclin D2 protein level: higher numbers of the symbol “+” indicate higher levels of protein; the symbol “−” indicates none detected. It counts as in vivo, mice. The protocol:
Western blots were used to analyze protein expression levels in adult MHC-CYCD2 mice and their non-transgenic litter mates. Hearts were homogenized in NP40 buffer (150 mM NaCl, 5 mM EDTA, 50 mM Tris-HCl pH 8.0, 1 μg/ml aprotinin, 1 μg/ml pepstatin, 1 μg/ml leupeptin, 50 μg/ml TLCK, 50 μg/ml PMSF, 100 μg/ml TPCK, 1% vol/vol Nonidet P-40). The homogenate was cleared by centrifugation at 40,000× g for 10 min, and the protein content of the supernatant was quantitated using a commercial assay (Bio-Rad, Richmond Calif.). Samples were separated by size on 10% polyacrylamide gels under denaturing conditions as described, and electro-blotted to nitrocellulose (Hoefer Scientific, San Francisco Calif.) membranes. The filters were stained with 0.1% naphthol blue-black in 45% methanol, 10% acetic acid to assess the efficiency of transfer. For Western analysis, nonspecific binding was blocked by incubation in block buffer (5% nonfat dry milk, 3% BSA, 0.1% Tween, 1×PBS) for 2 hr at room temperature. Commercial antibodies were used for each protein analyzed. Conditions (i.e. dilution, length of reaction, secondary antibody, etc) were according to the manufacturer's recommendations. The results are presented in Table 4 below, in which higher numbers of the symbol “+” indicate higher levels of protein, and the symbol “−” indicates none detected.
Myocardial hypertrophy was induced by isoproterenol infusion with Alzet minipumps in adult MHC-CYCD2 mice and their non-transgenic siblings (minipump model 2001, Alzet, Palo Alto Calif.; flow rate of 1 μl/hr, 0.028 g/ml isoproterenol). Hearts were harvested after 7 days of isoproterenol infusion and processed for Western blot analysis using procedures as described in Example 4. Again, higher numbers of the symbol “+” indicate higher levels of protein, and the symbol “−” indicates none detected.
For orientation: In western blotting, separated proteins are transferred to a membrane and probed.

Another assay is described as follows: Heart weight/body weight. It counts as in vivo, mice. An excerpt: A thymidine incorporation assay was used to determine if cardiomyocyte DNA synthesis persisted in adult transgenic MCH-CYCD2 animals. This testing also employed a second transgenic mouse line, designated MHC-nLAC. The MCH-nLAC mice express a nuclear localized β-galactosidase (βGAL) reporter gene exclusively in the cardiomyocytes (Soonpaa, M. H. et al., Science 264:98-101 (1994); Soonpaa, M. H. and L. J. Field, Am. J. Physiol. 272:H220-226 (1997)). Accurate cardiomyocyte tritiated thymidine labeling indices can be readily obtained with the MHC-nLAC animals simply by screening for co-localization of βGAL activity and silver grains in autoradiographs of 5-bromo-4-chloro-3-indolyl-B-D-galactoside (X-GAL) stained heart sections. To monitor the effect of cyclin D2 overexpression on cardiomyocyte DNA synthesis, MHC-CYCD2 mice were crossed with MHC-nLAC mice and animals carrying either the MHC-nLAC transgene alone or both transgenes were identified and sequestered. When the mice reached 11 weeks of age, they received a single injection of tritiated thymidine and were sacrificed four hours later. The hearts were removed, sectioned, stained with X-GAL and processed for autoradiography. […]

The mark [2] stands for this setting: Control mice, isoproterenol treated 7 days.
The mark [3] stands for this setting: MHC-CYCD2 mice, listed as Isoproterenol.

For the molecule `CC(C)NCC(O)c1ccc(O)c(O)c1` (centres unmarked) [isoproterenol], in the assay on cardiomyocytes (Control (MHC-nLAC) mice), the “Left Atrium cardiomyocyte labeling index” value is 0%, the “Right Atrium cardiomyocyte labeling index” value stood at 0% and the “Ventricle cardiomyocyte labeling index” value came out at 0%. In the assay on cardiomyocytes (setting [2]), the “Left Atrial DNA Synth. (%) Iso(7 days)” value is given as 0.00% and the “Ventricular DNA Synth. (%) Iso(7 days)” value was determined as 0.00%. Moreover, in the assay with cardiomyocytes (MHC-CYCD2 mice), the “Left Atrium cardiomyocyte labeling index” value is recorded as 7.28% and the “Ventricle cardiomyocyte labeling index” value is on record as “moderately decreased”. Further, in the assay on cardiomyocytes (setting [3]), the “Left Atrium cardiomyocyte labeling index” value was determined as 7.28%, the “Right Atrium cardiomyocyte labeling index” value came out at 0.29% and the “Ventricle cardiomyocyte labeling index” value came out at 0.11%. For the same molecule, the “effect on cardiomyocyte DNA synthesis” value with cardiomyocytes (non-cyclin expressing control group, isoproterenol treatment) is recorded as “no effect”. The “number of cardiomyocyte nuclei in the culture” value in assay [1] is recorded as “substantial increase”. In addition, in the assay on cell cycle protein (NonTransgenic (+Iso)), the CDC2 protein level entry was “+ +”, the “Cyclin D2 protein level” value is listed as “+” and the PCNA protein level result is “+ +”. In the assay on cell cycle protein (Transgenic (+Iso)), the CDC2 protein level result is listed as “+ + + +”, the “Cyclin D2 protein level” value is given as “+ + + + +” and the PCNA protein level result is on record as “+ + + +”. The “increase in heart weight/body weight” value in “Heart weight/body weight” (control mice, isoproterenol vs saline treated animals) is listed as 28%. Besides, in “Heart weight/body weight” (cyclin expressing mice, continuous isoproterenol 7 days), the “increase in heart weight/body weight” value is given as 47.6%.
